Measured values taken from patent US11472812B2, “Anti-cancer compounds targeting Ral GTPases and methods of using the same” (The Regents of the University of Colorado, a body corporate, priority 2014, dated 2022).

Legend:
RalB-GDP = target: T1, RalB-GDP (Homo sapiens, UniProt P11234, Q72L); assay: Differential scanning fluorometry (DSF); type: binding; settings: 10 μM RalB-GDP, 1% DMSO
T1 construct: made in house
T1 sequence (P11234 1-206 Q72L): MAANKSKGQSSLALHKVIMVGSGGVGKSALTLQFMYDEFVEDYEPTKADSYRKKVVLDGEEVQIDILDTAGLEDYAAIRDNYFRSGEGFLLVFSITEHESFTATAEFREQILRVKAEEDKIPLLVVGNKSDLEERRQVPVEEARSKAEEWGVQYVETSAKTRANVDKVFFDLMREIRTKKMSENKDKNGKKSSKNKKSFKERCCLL
Procedure: Differential scanning fluorometry (DSF) was used to evaluate binding between compounds and RalB-GDP. The melting temperature was measured by monitoring the increase of SYPRO orange that binds to hydrophobic regions of the protein. DSF was performed by preparing a plate containing 10 μM RalB-GDP and 10 μM RalB-GPNPP, 4×SYPRO orange in 20 mM Tris PH 8.0, 200 mM NaCl, 2.5 mM MgCl2 and 1 mM DTT buffer. Test compound was added to each well ensuring that the final concentration of DMSO was 1% across all samples. The thermal melting curves were obtained on a Light cycler 480 (Roche). The melting temperature was obtained by normalizing the curves and obtaining the temperature at the midpoint of the transition curve.

RhoA = target: T2, RhoA (Homo sapiens, UniProt P61586); assay: RhoA activity pull-down in H2122 xenograft tumors; type: in vivo; settings: BQU57 treated H2122 tumors, 3 h post-dose
T2 construct: from tissue; host or cells: H2122 xenograft tumours from nude mice
Text: Activity assay kits for Ras (#BK008) and RhoA (#BK036) were obtained from Cytoskeleton (Denver, Colo.). We used an ELISA for Ral activity based on selective binding of active RalA-GTP to its effector protein RalBP1.
Finally, we evaluated Ral GTPase activity in vivo in the H2122 xenografts. Nude mice were inoculated with 5×10^6 cells H2122 cells s.c. at four sites per mice. Tumor size reached an average of 250 mm^3 in ten days, at which time mice were given a signal i.p. dose of RBC8 or BQU57 at various concentrations. Tumors were then collected 3 h after injection of RBC8 or BQU57. RalA and RalB activity in tumor samples were then measured using the RalBP1 pull-down assay kit (Millipore #14-415). Ras and RhoA activity in tumor samples were measured using the respective pull-down assay kits. All the activity assays used western blotting as the final readout. For quantification of the immunoblots, the bands on each blot were first normalized to their respective internal control (10 ng of recombinant Ral, Ras, or […] protein run in the last lane) the numbers were then compared across different blots, each of which represented one treatment condition. Mice bearing H2122 tumors (median size 250 mm^3) were given a single intraperitoneal dose of RBC8 (50 mg/kg) or BQU57 (10/20/50 mg/kg) and tumors collected 3 h post-dose.

T2 sequence (P61586 whole entry): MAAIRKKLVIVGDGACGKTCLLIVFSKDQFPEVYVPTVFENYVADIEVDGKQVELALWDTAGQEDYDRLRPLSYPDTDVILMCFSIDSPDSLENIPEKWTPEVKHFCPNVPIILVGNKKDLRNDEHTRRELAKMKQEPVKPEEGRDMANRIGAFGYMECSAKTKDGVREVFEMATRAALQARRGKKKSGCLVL

Cc1nn(C)c2c1C(c1ccc(C(F)(F)F)cc1)C(C#N)=C(N)O2 (centres unmarked) [BQU57, 6-amino-1,3-dimethyl-4-(4-(trifluoromethyl)phenyl)-1,4-dihydropyrano[2,3-c]pyrazole-5-carbonitrile]
binding to RalB-GDP by DSF (melting temperature) (RalB-GDP): dose-dependent binding | inhibition of RhoA activity in tumors (RhoA): no significant inhibition
